Like-named read-outs stand apart in the source and are kept apart here.
What was measured:
Assay type in all cases: in vivo
wild oat (Avena fatua) = test: Test B postemergence; conditions: Avena fatua, post-emergence
How it was run: (§1)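 Greenhouse whole-plant test; surfactant-containing non-phytotoxic solvent formulation; pre- and postemergence applications made simultaneously; post plants 2–18 cm, 1- to 4-leaf; visual scoring at 13–15 days on 0–100 scale relative to controls.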

[1] = test system: blackgrass (Alopecurus myosuroides); test: Test B postemergence; conditions: Alopecurus myosuroides, post-emergence
How it was run: as §1

[2] = test system: wheat (Triticum aestivum); test: Test B pre/postemergence; conditions: Triticum aestivum; for plant injury at 125 g/ha: 125 g ai/ha; for plant injury at 500 g/ha: 500 g ai/ha
How it was run: as §1

[3] = test system: crabgrass (Digitaria sanguinalis); test: Test B pre/postemergence; conditions: Digitaria sanguinalis; for pest or weed control at 125 g/ha: 125 g ai/ha; for pest or weed control at 500 g/ha: 500 g ai/ha
How it was run: as §1

[4] = test system: Surinam grass (Brachiaria decumbens); test: Test B pre/postemergence; conditions: Urochloa decumbens; for pest or weed control at 125 g/ha: 125 g ai/ha; for pest or weed control at 500 g/ha: 500 g ai/ha
How it was run: as §1

[5] = test system: lambsquarters (Chenopodium album); test: Test B pre/postemergence; conditions: Chenopodium album; for pest or weed control at 125 g/ha: 125 g ai/ha; for pest or weed control at 500 g/ha: 500 g ai/ha
How it was run: as §1

corn (Zea mays) = test: Test B pre/postemergence; conditions: Zea mays
How it was run: as §1

[6] = test system: giant foxtail (Setaria faberii); test: Test B pre/postemergence; conditions: Setaria faberi; for pest or weed control at 125 g/ha: 125 g ai/ha; for pest or weed control at 500 g/ha: 500 g ai/ha
How it was run: as §1

[7] = test system: morningglory (Ipomoea coccinea); test: Test B pre/postemergence; conditions: Ipomoea; for pest or weed control at 125 g/ha: 125 g ai/ha; for pest or weed control at 500 g/ha: 500 g ai/ha
How it was run: as §1

[8] = test system: pigweed (Amaranthus retroflexus); test: Test B pre/postemergence; conditions: Amaranthus retroflexus; for pest or weed control at 125 g/ha: 125 g ai/ha; for pest or weed control at 500 g/ha: 500 g ai/ha
How it was run: as §1

[9] = test system: velvetleaf (Abutilon theophrasti); test: Test B pre/postemergence; conditions: Abutilon theophrasti; for pest or weed control at 125 g/ha: 125 g ai/ha; for pest or weed control at 500 g/ha: 500 g ai/ha
How it was run: as §1

[10] = test system: cocklebur (Xanthium strumarium); test: Test B pre/postemergence; conditions: Xanthium strumarium; for pest or weed control at 125 g/ha: 125 g ai/ha; for pest or weed control at 500 g/ha: 500 g ai/ha
How it was run: as §1

[11] = test system: barnyardgrass (Echinochloa crus-galli); test: Test B pre/postemergence; conditions: Echinochloa crus-galli; for pest or weed control at 125 g/ha: 125 g ai/ha; for pest or weed control at 500 g/ha: 500 g ai/ha
How it was run: as §1

rice (Oryza sativa) = test: Test B flooded paddy test; conditions: Oryza sativa, Flood, 1000 g ai/ha; scale 0 to 100; read-out: Plant response rating, Rice
How it was run: (§2)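 Plants were grown to the 2-leaf stage before treatment, then kept in a greenhouse for 13 to 15 days. Injury was rated visually against untreated controls on a 0 to 100 scale, where 0 is no effect and 100 is complete control.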

[12] = test system: umbrella sedge (Cyperus difformis); test: Test B flooded paddy test; conditions: Cyperus difformis, Flood, 1000 g ai/ha; scale 0 to 100; read-out: Plant response rating, Sedge, Umbrella
How it was run: as §2

[13] = test system: duck salad (Heteranthera limosa); test: Test B flooded paddy test; conditions: Heteranthera limosa, Flood, 1000 g ai/ha; scale 0 to 100; read-out: Plant response rating, Ducksalad
How it was run: as §2

[14] = test system: barnyardgrass (Echinochloa crus-galli); test: Test B flooded paddy test; conditions: Echinochloa crus-galli, Flood, 1000 g ai/ha; scale 0 (no effect) to 100 (complete control); read-out: Plant response rating, Barnyardgrass
How it was run: as §2

For `COC(=O)c1nc(C2CC2)nc(N)c1Cl` [Compound 9, methyl 6-amino-5-chloro-2-cyclopropyl-4-pyrimidinecarboxylate], the pest or weed control at 125 g/ha (wild oat (Avena fatua); 125 g ai/ha, scale 0 to 100 (0 no effect, 100 complete control), read-out: Oat, Wild plant response rating) was 20%, the pest or weed control at 500 g/ha (wild oat (Avena fatua); 500 g ai/ha, scale 0 to 100, read-out: Plant response rating, Oat, Wild) was 70% and the pest or weed control at 125 g/ha ([1]; 125 g ai/ha, scale 0 to 100 (0 no effect, 100 complete control), read-out: Blackgrass plant response rating) was 60%. For the same compound, the pest or weed control at 500 g/ha ([1]; 500 g ai/ha, scale 0 to 100, read-out: Plant response rating, Blackgrass) was 80%, the plant injury at 125 g/ha ([2]; post-emergence, Postemergence, scale 0 to 100 (0 no effect, 100 complete control), read-out: Wheat plant response rating) was 40% and the plant injury at 500 g/ha ([2]; post-emergence, Postemergence, scale 0 to 100, read-out: Plant response rating, Wheat) was 70%. The plant injury at 125 g/ha ([2]; pre-emergence, Preemergence, scale 0 to 100 (0 no effect, 100 complete control), read-out: Plant response rating, Wheat) was 40%, the plant injury at 500 g/ha ([2]; pre-emergence, Preemergence, scale 0 to 100 (0 no effect, 100 complete control), read-out: Wheat plant response rating) was 80% and the pest or weed control at 125 g/ha ([3]; post-emergence, Postemergence, scale 0 to 100 (0 no effect, 100 complete control), read-out: Crabgrass plant response rating) was 90%. It also gave a pest or weed control at 500 g/ha ([3]; post-emergence, Postemergence, scale 0 to 100, read-out: Plant response rating, Crabgrass) of 90%, a pest or weed control at 125 g/ha ([3]; pre-emergence, Preemergence, scale 0 to 100 (0 no effect, 100 complete control), read-out: Plant response rating, Crabgrass) of 90% and a pest or weed control at 500 g/ha ([3]; pre-emergence, Preemergence, scale 0 to 100 (0 no effect, 100 complete control), read-out: Crabgrass plant response rating) of 100%. It also gave a pest or weed control at 125 g/ha ([4]; post-emergence, Postemergence, scale 0 to 100 (0 no effect, 100 complete control), read-out: Surinam Grass plant response rating) of 90%, a pest or weed control at 500 g/ha ([4]; post-emergence, Postemergence, scale 0 to 100, read-out: Plant response rating, Surinam Grass) of 90% and a pest or weed control at 125 g/ha ([4]; pre-emergence, Preemergence, scale 0 to 100 (0 no effect, 100 complete control), read-out: Plant response rating, Surinam Grass) of 70%. For the same compound, the pest or weed control at 500 g/ha ([4]; pre-emergence, Preemergence, scale 0 to 100 (0 no effect, 100 complete control), read-out: Surinam Grass plant response rating) was 90%, the pest or weed control at 125 g/ha ([5]; post-emergence, Postemergence, scale 0 to 100 (0 no effect, 100 complete control), read-out: Lambsquarters plant response rating) was 90% and the pest or weed control at 500 g/ha ([5]; post-emergence, Postemergence, scale 0 to 100, read-out: Plant response rating, Lambsquarters) was 100%. The pest or weed control at 125 g/ha ([5]; pre-emergence, Preemergence, scale 0 to 100 (0 no effect, 100 complete control), read-out: Plant response rating, Lambsquarters) was 90%, the pest or weed control at 500 g/ha ([5]; pre-emergence, Preemergence, scale 0 to 100 (0 no effect, 100 complete control), read-out: Lambsquarters plant response rating) was 100% and the plant injury at 125 g/ha (corn (Zea mays); post-emergence, Postemergence, 125 g ai/ha, scale 0 to 100 (0 no effect, 100 complete control), read-out: Corn plant response rating) was 70%. The Corn plant response rating (crop injury, 0 = no effect, 100 = complete kill) at 500 g/ha (corn (Zea mays); post-emergence, Postemergence, 500 g ai/ha, scale 0 to 100) was 90%, the Corn plant response rating (crop injury, 0 = no effect, 100 = complete kill) at 125 g/ha (corn (Zea mays); pre-emergence, Preemergence, 125 g ai/ha, scale 0 to 100 (0 no effect, 100 complete control)) was 50% and the plant injury at 500 g/ha (corn (Zea mays); pre-emergence, Preemergence, 500 g ai/ha, scale 0 to 100 (0 no effect, 100 complete control), read-out: Corn plant response rating) was 80%. It also gave a pest or weed control at 125 g/ha ([6]; post-emergence, Postemergence, scale 0 to 100 (0 no effect, 100 complete control), read-out: Foxtail, Giant plant response rating) of 90%, a pest or weed control at 500 g/ha ([6]; post-emergence, Postemergence, scale 0 to 100, read-out: Plant response rating, Foxtail, Giant) of 90% and a pest or weed control at 125 g/ha ([6]; pre-emergence, Preemergence, scale 0 to 100 (0 no effect, 100 complete control), read-out: Plant response rating, Foxtail, Giant) of 70%. It also gave a pest or weed control at 500 g/ha ([6]; pre-emergence, Preemergence, scale 0 to 100 (0 no effect, 100 complete control), read-out: Foxtail, Giant plant response rating) of 80%, a pest or weed control at 125 g/ha ([7]; post-emergence, Postemergence, scale 0 to 100 (0 no effect, 100 complete control), read-out: Morningglory plant response rating) of 100% and a pest or weed control at 500 g/ha ([7]; post-emergence, Postemergence, scale 0 to 100, read-out: Plant response rating, Morningglory) of 100%. For the same compound, the pest or weed control at 125 g/ha ([7]; pre-emergence, Preemergence, scale 0 to 100 (0 no effect, 100 complete control), read-out: Plant response rating, Morningglory) was 100%, the pest or weed control at 500 g/ha ([7]; pre-emergence, Preemergence, scale 0 to 100 (0 no effect, 100 complete control), read-out: Morningglory plant response rating) was 100% and the pest or weed control at 125 g/ha ([8]; post-emergence, Postemergence, scale 0 to 100 (0 no effect, 100 complete control), read-out: Pigweed plant response rating) was 100%. For the same compound, the pest or weed control at 500 g/ha ([8]; post-emergence, Postemergence, scale 0 to 100, read-out: Plant response rating, Pigweed) was 100%, the pest or weed control at 125 g/ha ([8]; pre-emergence, Preemergence, scale 0 to 100 (0 no effect, 100 complete control), read-out: Plant response rating, Pigweed) was 90% and the pest or weed control at 500 g/ha ([8]; pre-emergence, Preemergence, scale 0 to 100 (0 no effect, 100 complete control), read-out: Pigweed plant response rating) was 100%. The pest or weed control at 125 g/ha ([9]; post-emergence, Postemergence, scale 0 to 100 (0 no effect, 100 complete control), read-out: Velvetleaf plant response rating) was 100%, the pest or weed control at 500 g/ha ([9]; post-emergence, Postemergence, scale 0 to 100, read-out: Plant response rating, Velvetleaf) was 100% and the pest or weed control at 125 g/ha ([9]; pre-emergence, Preemergence, scale 0 to 100 (0 no effect, 100 complete control), read-out: Plant response rating, Velvetleaf) was 90%. The pest or weed control at 500 g/ha ([9]; pre-emergence, Preemergence, scale 0 to 100 (0 no effect, 100 complete control), read-out: Velvetleaf plant response rating) was 100%, the pest or weed control at 125 g/ha ([10]; post-emergence, Postemergence, scale 0 to 100 (0 no effect, 100 complete control), read-out: Cocklebur plant response rating) was 100% and the pest or weed control at 500 g/ha ([10]; post-emergence, Postemergence, scale 0 to 100, read-out: Plant response rating, Cocklebur) was 100%. The pest or weed control at 125 g/ha ([10]; pre-emergence, Preemergence, scale 0 to 100 (0 no effect, 100 complete control), read-out: Plant response rating, Cocklebur) was 90%, the pest or weed control at 500 g/ha ([10]; pre-emergence, Preemergence, scale 0 to 100 (0 no effect, 100 complete control), read-out: Cocklebur plant response rating) was 100% and the pest or weed control at 125 g/ha ([11]; post-emergence, Postemergence, scale 0 to 100 (0 no effect, 100 complete control), read-out: Barnyardgrass plant response rating) was 90%. For the same compound, the pest or weed control at 500 g/ha ([11]; post-emergence, Postemergence, scale 0 to 100, read-out: Plant response rating, Barnyardgrass) was 90%, the pest or weed control at 125 g/ha ([11]; pre-emergence, Preemergence, scale 0 to 100 (0 no effect, 100 complete control), read-out: Plant response rating, Barnyardgrass) was 50% and the pest or weed control at 500 g/ha ([11]; pre-emergence, Preemergence, scale 0 to 100 (0 no effect, 100 complete control), read-out: Barnyardgrass plant response rating) was 90%. The plant injury at 1000 g/ha (rice (Oryza sativa)) was 80%, the pest or weed control at 1000 g/ha [12] was 90% and the pest or weed control at 1000 g/ha [13] was 100%. It also gave a pest or weed control at 1000 g/ha [14] of 90%.
